Results published in ChEMBL document CHEMBL3297690, “Discovery and development of Janus kinase (JAK) inhibitors for inflammatory diseases” (J Med Chem, 2014).
pIC50, pKi: −log10 of the molar value.

How the values were obtained:
[1] = molecular target: T1, Tyrosine-protein kinase JAK1 (Homo sapiens, UniProt P23458)
[2] = molecular target: T2, Tyrosine-protein kinase JAK2 (Homo sapiens, UniProt O60674); assay type: cell-based, Blood, CD34+ cell
[3] = molecular target: T3, Tyrosine-protein kinase JAK3 (Mus musculus, UniProt Q62137); assay type: cell-based
T3 sequence (Q62137 whole entry): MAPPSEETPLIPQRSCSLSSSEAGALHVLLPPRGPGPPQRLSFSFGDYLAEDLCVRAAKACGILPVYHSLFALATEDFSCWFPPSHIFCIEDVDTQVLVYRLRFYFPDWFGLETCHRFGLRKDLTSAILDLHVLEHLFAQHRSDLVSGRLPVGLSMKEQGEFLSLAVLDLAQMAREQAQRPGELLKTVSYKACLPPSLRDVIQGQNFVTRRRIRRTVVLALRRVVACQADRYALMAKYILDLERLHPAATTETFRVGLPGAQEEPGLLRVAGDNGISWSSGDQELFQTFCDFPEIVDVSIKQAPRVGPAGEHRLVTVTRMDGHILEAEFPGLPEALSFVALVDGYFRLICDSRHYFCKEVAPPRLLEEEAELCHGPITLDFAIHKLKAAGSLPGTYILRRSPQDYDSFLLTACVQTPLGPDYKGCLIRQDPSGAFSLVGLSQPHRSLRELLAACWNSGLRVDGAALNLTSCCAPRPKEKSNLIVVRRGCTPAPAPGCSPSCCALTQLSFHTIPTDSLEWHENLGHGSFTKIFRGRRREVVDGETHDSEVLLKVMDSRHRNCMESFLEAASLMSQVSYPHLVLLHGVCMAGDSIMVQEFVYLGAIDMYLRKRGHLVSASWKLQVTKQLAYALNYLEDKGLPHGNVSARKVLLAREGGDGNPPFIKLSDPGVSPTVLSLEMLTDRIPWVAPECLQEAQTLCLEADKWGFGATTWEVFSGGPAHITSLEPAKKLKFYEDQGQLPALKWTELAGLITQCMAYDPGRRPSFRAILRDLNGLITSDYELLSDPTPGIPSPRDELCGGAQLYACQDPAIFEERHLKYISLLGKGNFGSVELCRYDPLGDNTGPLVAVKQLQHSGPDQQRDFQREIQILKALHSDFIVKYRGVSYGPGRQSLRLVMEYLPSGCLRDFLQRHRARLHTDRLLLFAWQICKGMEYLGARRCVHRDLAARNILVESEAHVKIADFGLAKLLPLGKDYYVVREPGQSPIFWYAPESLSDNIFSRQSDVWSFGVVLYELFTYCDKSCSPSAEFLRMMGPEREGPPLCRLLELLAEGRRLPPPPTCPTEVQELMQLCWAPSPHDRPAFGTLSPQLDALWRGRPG

[4] = molecular target: T1, Tyrosine-protein kinase JAK1; assay type: cell-based
[5] = molecular target: T2, Tyrosine-protein kinase JAK2
[6] = molecular target: T2, Tyrosine-protein kinase JAK2; remark: listed apart in the source

T2 sequence (O60674 whole entry): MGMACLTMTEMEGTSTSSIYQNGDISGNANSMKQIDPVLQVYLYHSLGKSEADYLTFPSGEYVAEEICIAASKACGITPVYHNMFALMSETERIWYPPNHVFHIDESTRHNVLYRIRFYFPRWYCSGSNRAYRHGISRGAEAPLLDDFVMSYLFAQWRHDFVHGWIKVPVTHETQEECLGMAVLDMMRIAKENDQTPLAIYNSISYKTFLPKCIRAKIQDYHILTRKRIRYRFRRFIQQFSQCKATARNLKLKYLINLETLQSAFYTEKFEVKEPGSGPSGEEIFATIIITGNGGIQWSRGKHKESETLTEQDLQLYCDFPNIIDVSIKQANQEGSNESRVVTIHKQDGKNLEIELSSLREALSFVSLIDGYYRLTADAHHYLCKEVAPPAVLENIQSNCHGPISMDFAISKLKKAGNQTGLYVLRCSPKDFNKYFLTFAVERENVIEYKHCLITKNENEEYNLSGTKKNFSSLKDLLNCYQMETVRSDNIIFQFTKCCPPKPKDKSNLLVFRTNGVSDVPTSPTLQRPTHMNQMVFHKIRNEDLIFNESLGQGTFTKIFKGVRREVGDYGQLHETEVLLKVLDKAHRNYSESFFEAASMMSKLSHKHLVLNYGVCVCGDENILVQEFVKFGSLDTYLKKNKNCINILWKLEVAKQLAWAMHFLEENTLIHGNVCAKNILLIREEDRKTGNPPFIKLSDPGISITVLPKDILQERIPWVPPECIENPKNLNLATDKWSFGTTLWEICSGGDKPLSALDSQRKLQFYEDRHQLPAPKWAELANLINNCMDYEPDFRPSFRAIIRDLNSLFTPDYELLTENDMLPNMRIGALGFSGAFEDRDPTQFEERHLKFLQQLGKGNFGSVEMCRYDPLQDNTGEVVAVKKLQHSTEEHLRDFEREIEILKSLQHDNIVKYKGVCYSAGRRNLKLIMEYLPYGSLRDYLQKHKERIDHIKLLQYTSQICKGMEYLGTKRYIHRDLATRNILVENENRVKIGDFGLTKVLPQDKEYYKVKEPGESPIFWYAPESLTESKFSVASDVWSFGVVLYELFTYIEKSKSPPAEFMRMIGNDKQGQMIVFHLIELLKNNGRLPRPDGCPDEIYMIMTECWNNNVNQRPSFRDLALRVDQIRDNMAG
T1 sequence (P23458 whole entry): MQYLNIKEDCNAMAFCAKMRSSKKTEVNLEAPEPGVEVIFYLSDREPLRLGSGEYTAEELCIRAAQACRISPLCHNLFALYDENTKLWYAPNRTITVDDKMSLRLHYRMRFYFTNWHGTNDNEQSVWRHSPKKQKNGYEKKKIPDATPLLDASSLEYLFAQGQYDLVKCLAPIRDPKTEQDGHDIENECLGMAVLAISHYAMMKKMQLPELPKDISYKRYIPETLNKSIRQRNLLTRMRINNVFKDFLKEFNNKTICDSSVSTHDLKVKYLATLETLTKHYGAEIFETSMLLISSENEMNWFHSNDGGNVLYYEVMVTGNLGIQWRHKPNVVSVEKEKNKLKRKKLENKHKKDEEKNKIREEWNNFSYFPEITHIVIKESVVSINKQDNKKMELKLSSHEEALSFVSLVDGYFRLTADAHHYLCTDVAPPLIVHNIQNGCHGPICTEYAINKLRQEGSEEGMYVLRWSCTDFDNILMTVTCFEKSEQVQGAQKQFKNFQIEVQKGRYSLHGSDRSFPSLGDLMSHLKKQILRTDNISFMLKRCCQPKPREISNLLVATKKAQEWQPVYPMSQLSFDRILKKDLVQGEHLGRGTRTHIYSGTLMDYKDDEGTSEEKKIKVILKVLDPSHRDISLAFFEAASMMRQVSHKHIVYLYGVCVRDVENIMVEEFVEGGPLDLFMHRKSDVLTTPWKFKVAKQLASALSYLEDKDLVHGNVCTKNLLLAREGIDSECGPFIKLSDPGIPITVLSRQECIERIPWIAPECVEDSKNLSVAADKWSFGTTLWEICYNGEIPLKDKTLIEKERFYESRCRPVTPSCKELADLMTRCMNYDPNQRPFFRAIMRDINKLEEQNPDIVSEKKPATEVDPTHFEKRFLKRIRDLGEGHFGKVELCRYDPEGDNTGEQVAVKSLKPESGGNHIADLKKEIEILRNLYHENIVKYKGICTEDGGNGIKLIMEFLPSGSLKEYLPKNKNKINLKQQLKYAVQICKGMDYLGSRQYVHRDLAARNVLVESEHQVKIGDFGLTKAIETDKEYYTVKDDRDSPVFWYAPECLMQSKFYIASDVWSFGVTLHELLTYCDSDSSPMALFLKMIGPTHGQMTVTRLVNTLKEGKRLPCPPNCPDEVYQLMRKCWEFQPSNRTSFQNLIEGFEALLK

Structure (SMILES): CC[C@@](C)(Nc1ccnc(-c2c[nH]c3ncccc23)n1)C(=O)NCC(F)(F)F [DECERNOTINIB]
- pIC50 [1]: 7.88
- pIC50 [2]: < 5.00
- pIC50 [3]: 7.30
- pIC50 [4]: 7.30
- pIC50 [5]: 7.62
- pIC50 [6]: 6.21
- pKi [6]: 7.89
